Data as given in patent publication US20140171358A1, “ANTIMICROBIAL COMPOSITIONS COMPRISING DGLA AND NEOMYCIN SULFATE AND METHODS OF USE THEREOF” (Dignity Sciences Limited, priority 2012, published 2014).

Assays:
Format in all cases: cell-based
[1] = test system: P. acnes; assay: agar dilution method: growth index and MIC on P. acnes (single compounds and combinations); settings: for MIC: Cutibacterium acnes, compound alone, read-out: MIC (mg/mL) as per P-11-0007 or P-11-0008 Addendum A
Protocol: Several compounds including fatty acids such as DGLA, 15-OHEPA, and 15-HETrE were tested to determine their capacity to inhibit the growth of P. acnes. In an exemplary method, an agar dilution method was used to determine the minimum inhibitory concentration (MIC) of each tested compound. Briefly, the agar dilution method involved preparing a series of concentrations of each compound (e.g., nicotinamide, benzoyl peroxide, adapalene, metronidazole, DGLA, 15-OHEPA, and 15-HETrE) in a Reinforced Clostridial Agar (RCA) media that facilitates growth of P. acnes under anaerobic conditions. An inoculum of P. acnes was prepared by incubation of P. acnes for approximately seven days at 35-37° C. to achieve a ≧1.0 OD600 inoculum of P. acnes in RCM broth. A portion of this inoculum was then added to the surface of each plate as a 10 μL spot and incubated at 35-37° C. for 72 hours or more. Growth of P. acnes was then observed and compared to control plates in which no compound has been added, and positive inhibition plates prepared with erythromycin. […] The growth of P. acnes in the presence of nicotinamide, benzoyl peroxide, adapalene, metronidazole, DGLA, 15-OHEPA, and 15-HETrE was determined with varying concentrations of the compound (see, Table 2). Next, the MIC was determined as the concentration at which a marked reduction (+) occurs in the appearance of growth on the test plate (as per Clinical and Laboratory Standards Institute M11-A7). The compounds tested singly in Example 1 were tested in combination with one another to determine the capacity of the combination to inhibit the growth of P. acnes. In an exemplary method, the MIC was determined for each of the combination as described in Example 1. Briefly, test combinations included DGLA with nicotinamide, benzoyl peroxide, adapalene, or metronidazole; 15-HETrE with nicotinamide, benzoyl peroxide, adapalene, or metronidazole; and 15-OHEPA with nicotinamide, benzoyl peroxide, adapalene, or metronidazole. The tables below show the growth of P. acnes in the presence of 0.4 or 1.0 mg/mL DGLA with varying concentrations of nicotinamide, benzoyl peroxide, adapalene, or metronidazole (Table 3); the growth of P. acnes in the presence of 0.01 or 0.05 mg/mL 15-HETrE with varying concentrations of nicotinamide, benzoyl peroxide, adapalene, or metronidazole (Table 5); and the growth of P. acnes in the presence of 0.5 or 0.1 mg/mL 15-OHEPA with varying concentrations of nicotinamide, benzoyl peroxide, adapalene, or metronidazole (Table 7).

[2] = test system: E. coli; assay: paper disc corrected zone of inhibition (CZOI) on Mueller Hinton agar; settings: for Lowest Concentration With Observed Inhibition / Most Effective Concentration Observed: E. coli
Protocol: (§1) The compounds tested in Example 1 were tested to determine their capacity to inhibit the growth of a variety of Gram-negative bacteria, Gram-positive bactgeria, fungi and yeast. In an exemplary method, Mueller Hinton agar plates were streaked with 500 μL of a 10^5 colony-forming units/mL culture and allowed to dry for at least one minute. A sterile paper disc (6 mm diameter) was then placed in the middle of each plate using sterile forceps. Twenty microliters of a solution of a known concentration of a test compound in filter-sterilized 95% ethanol were pipetted onto each test plate. Two streaked plates served as positive inhibitory controls and contained 6 mm sterile paper discs with standard tetracycline solutions. Two additional plates served as negative inhibition controls and each contained 6 mm sterile paper discs with 20 μL of filter-sterilized 95% ethanol. Two more plates served as positive growth controls and contained no paper disc or added antibacterial agent. The plates were incubated at 32.5±2° C. for 24±4 hours, after which the corrected zone of inhibition (“CZOI”) was determined as follows: For each plate, the length Y2 and width X2 of the test sample (paper disc) and length Y1 and width X1 of the clear zone were measured (FIG. 1). The CZOI was calculated from these values as shown by the equation below: [formula]

[3] = test system: S. epidermidis; assay: as above; settings: for Lowest Concentration With Observed Inhibition / Most Effective Concentration Observed: S. epidermidis
Protocol: as §1

[4] = test system: E. faecalis; assay: as above; settings: for Lowest Concentration With Observed Inhibition / Most Effective Concentration Observed: E. faecalis
Protocol: as §1

[5] = test system: K. pneumoniae; assay: as above; settings: for Lowest Concentration With Observed Inhibition / Most Effective Concentration Observed: K. pneumoniae
Protocol: as §1

[6] = test system: C. albicans; assay: as above; settings: for Lowest Concentration With Observed Inhibition / Most Effective Concentration Observed: C. albicans
Protocol: as §1

[7] = test system: P. aeroginosa; assay: as above; settings: for Lowest Concentration With Observed Inhibition / Most Effective Concentration Observed: P. aeroginosa
Protocol: as §1

[8] = test system: A. brasiliensis; assay: as above; settings: for Lowest Concentration With Observed Inhibition / Most Effective Concentration Observed: A. brasiliensis
Protocol: as §1

[9] = test system: S. aureus; assay: as above; settings: for Lowest Concentration With Observed Inhibition / Most Effective Concentration Observed: S. aureus
Protocol: as §1

[10] = test system: C. striatum; assay: as above; settings: for Lowest Concentration With Observed Inhibition / Most Effective Concentration Observed: C. striatum
Protocol: as §1

## CCC=CCC(O)C=CC=CCC=CCC=CCCCC(=O)O (stereo not shown) [15-OHEPA, 15-Hydroxy-eicosa-5,8,11,13,17-pentaenoic acid]
[1]; 0.05 mg/mL
  effect on growth of P. acnes on its own: no effect on its own
[1]
  MIC: 0.05 to 0.075 mg/mL
[2]; 0.01 mg/mL
  Average CZOI: 2 mm
[2]; 0.025 mg/mL
  Average CZOI: 1.25 mm
[2]; 0.05 mg/mL
  Average CZOI: 1.25 mm
[2]; 0.075 mg/mL
  Average CZOI: 1.75 mm
[2]; 0.1 mg/mL
  Average CZOI: 1.5 mm
[2]
  Lowest Concentration With Observed Inhibition: 0.001 mg/mL
  Most Effective Concentration Observed: 0.001 mg/mL
[3]; 0.01 mg/mL
  Average CZOI: 1 mm
[3]; 0.025 mg/mL
  Average CZOI: 2 mm
[3]; 0.05 mg/mL
  Average CZOI: 2.25 mm
[3]; 0.075 mg/mL
  Average CZOI: 3 mm
[3]; 0.1 mg/mL
  Average CZOI: 1.25 mm
[3]
  Lowest Concentration With Observed Inhibition: 0.001 mg/mL
  Most Effective Concentration Observed: 0.075 mg/mL
[4]; 0.01 mg/mL
  Average CZOI: 2.5 mm
[4]; 0.025 mg/mL
  Average CZOI: 1.5 mm
[4]; 0.05 mg/mL
  Average CZOI: 2.25 mm
[4]; 0.075 mg/mL
  Average CZOI: 1.25 mm
[4]; 0.1 mg/mL
  Average CZOI: 1.5 mm
[4]
  Lowest Concentration With Observed Inhibition: 0.001 mg/mL
  Most Effective Concentration Observed: 0.001 mg/mL
[5]; 0.01 mg/mL
  Average CZOI: 2.25 mm
[5]; 0.025 mg/mL
  Average CZOI: 1.5 mm
[5]; 0.05 mg/mL
  Average CZOI: 1 mm
[5]; 0.075 mg/mL
  Average CZOI: 1.75 mm
[5]; 0.1 mg/mL
  Average CZOI: 2.25 mm
[5]
  Lowest Concentration With Observed Inhibition: 0.001 mg/mL
  Most Effective Concentration Observed: 0.001 mg/mL
[6]; 0.01 mg/mL
  Average CZOI: 1 mm
[6]; 0.025 mg/mL
  Average CZOI: 1.5 mm
[6]; 0.05 mg/mL
  Average CZOI: 2.5 mm
[6]; 0.075 mg/mL
  Average CZOI: 2.25 mm
[6]; 0.1 mg/mL
  Average CZOI: 1 mm
[6]
  Lowest Concentration With Observed Inhibition: 0.001 mg/mL
  Most Effective Concentration Observed: 0.05 mg/mL
[7]; 0.01 mg/mL
  Average CZOI: 1.25 mm
[7]; 0.025 mg/mL
  Average CZOI: 1 mm
[7]; 0.05 mg/mL
  Average CZOI: 1.5 mm
[7]; 0.075 mg/mL
  Average CZOI: 1.75 mm
[7]; 0.1 mg/mL
  Average CZOI: 1.5 mm
[7]
  Lowest Concentration With Observed Inhibition: 0.001 mg/mL
  Most Effective Concentration Observed: 0.075 mg/mL
[8]; 0.01 mg/mL
  Average CZOI: 0.25 mm
[8]; 0.025 mg/mL
  Average CZOI: 1.75 mm
[8]; 0.05 mg/mL
  Average CZOI: 2 mm
[8]; 0.075 mg/mL
  Average CZOI: 3.75 mm
[8]; 0.1 mg/mL
  Average CZOI: 2.75 mm
[8]
  Lowest Concentration With Observed Inhibition: 0.001 mg/mL
  Most Effective Concentration Observed: 0.075 mg/mL
[9]; 0.01 mg/mL
  Average CZOI: 0 mm
[9]; 0.025 mg/mL
  Average CZOI: 1 mm
[9]; 0.05 mg/mL
  Average CZOI: 1.25 mm
[9]; 0.075 mg/mL
  Average CZOI: 2.25 mm
[9]; 0.1 mg/mL
  Average CZOI: 2 mm
[9]
  Lowest Concentration With Observed Inhibition: 0.025 mg/mL
  Most Effective Concentration Observed: 0.075 mg/mL
[10]; 0.01 mg/mL
  Average CZOI: 3.25 mm
[10]; 0.025 mg/mL
  Average CZOI: 3 mm
[10]; 0.05 mg/mL
  Average CZOI: 3.5 mm
[10]; 0.075 mg/mL
  Average CZOI: 2 mm
[10]; 0.1 mg/mL
  Average CZOI: 1.5 mm
[10]
  Lowest Concentration With Observed Inhibition: 0.001 mg/mL
  Most Effective Concentration Observed: 0.05 mg/mL

## CCCCC/C=C\C/C=C\C/C=C\CCCCCCC(=O)O [DGLA, cis-8,11,14-eicosatrienoic acid]
[1]; 0.4 mg/ml
  effect on growth of P. acnes on its own: no effect on its own
[1]
  MIC: 0.4 to 0.6 mg/mL
[2]; 0.6 mg/mL
  Average CZOI: 1 mm
[2]; 0.8 mg/mL
  Average CZOI: 1 mm
[2]; 1.0 mg/mL
  Average CZOI: 1.5 mm
[2]; 1.2 mg/mL
  Average CZOI: 0.5 mm
[2]; 1.4 mg/mL
  Average CZOI: 0.25 mm
[2]
  Lowest Concentration With Observed Inhibition: 0.6 mg/mL
  Most Effective Concentration Observed: 1.0 mg/mL
[3]; 0.6 mg/mL
  Average CZOI: 4.75 mm
[3]; 0.8 mg/mL
  Average CZOI: 3.25 mm
[3]; 1.0 mg/mL
  Average CZOI: 6.5 mm
[3]; 1.2 mg/mL
  Average CZOI: 3 mm
[3]; 1.4 mg/mL
  Average CZOI: 1 mm
[3]
  Lowest Concentration With Observed Inhibition: 0.6 mg/mL
  Most Effective Concentration Observed: 1.0 mg/mL
[4]; 0.6 mg/mL
  Average CZOI: 3.25 mm
[4]; 0.8 mg/mL
  Average CZOI: 3 mm
[4]; 1.0 mg/mL
  Average CZOI: 5 mm
[4]; 1.2 mg/mL
  Average CZOI: 2 mm
[4]; 1.4 mg/mL
  Average CZOI: 1.75 mm
[4]
  Lowest Concentration With Observed Inhibition: 0.6 mg/mL
  Most Effective Concentration Observed: 1.0 mg/mL
[5]; 0.6 mg/mL
  Average CZOI: 1.75 mm
[5]; 0.8 mg/mL
  Average CZOI: 2 mm
[5]; 1.0 mg/mL
  Average CZOI: 2.75 mm
[5]; 1.2 mg/mL
  Average CZOI: 2 mm
[5]; 1.4 mg/mL
  Average CZOI: 1.25 mm
[5]
  Lowest Concentration With Observed Inhibition: 0.6 mg/mL
  Most Effective Concentration Observed: 1.0 mg/mL
[6]; 0.6 mg/mL
  Average CZOI: 1 mm
[6]; 0.8 mg/mL
  Average CZOI: 0.75 mm
[6]; 1.0 mg/mL
  Average CZOI: 1.75 mm
[6]; 1.2 mg/mL
  Average CZOI: 2 mm
[6]; 1.4 mg/mL
  Average CZOI: 3 mm
[6]
  Lowest Concentration With Observed Inhibition: 0.6 mg/mL
  Most Effective Concentration Observed: 1.4 mg/mL
[7]; 0.6 mg/mL
  Average CZOI: 1 mm
[7]; 0.8 mg/mL
  Average CZOI: 1 mm
[7]; 1.0 mg/mL
  Average CZOI: 1 mm
[7]; 1.2 mg/mL
  Average CZOI: 1 mm
[7]; 1.4 mg/mL
  Average CZOI: 1 mm
[7]
  Lowest Concentration With Observed Inhibition: 0.6 mg/mL
  Most Effective Concentration Observed: 0.6 mg/mL
[8]; 0.6 mg/mL
  Average CZOI: 1.5 mm
[8]; 0.8 mg/mL
  Average CZOI: 4 mm
[8]; 1.0 mg/mL
  Average CZOI: 2.75 mm
[8]; 1.2 mg/mL
  Average CZOI: 1.75 mm
[8]; 1.4 mg/mL
  Average CZOI: 2.25 mm
[8]
  Lowest Concentration With Observed Inhibition: 0.6 mg/mL
  Most Effective Concentration Observed: 0.8 mg/mL
[9]; 0.6 mg/mL
  Average CZOI: 1.25 mm
[9]; 0.8 mg/mL
  Average CZOI: 3 mm
[9]; 1.0 mg/mL
  Average CZOI: 3 mm
[9]; 1.2 mg/mL
  Average CZOI: 3 mm
[9]; 1.4 mg/mL
  Average CZOI: 2 mm
[9]
  Lowest Concentration With Observed Inhibition: 0.6 mg/mL
  Most Effective Concentration Observed: 0.8 mg/mL
[10]; 0.6 mg/mL
  Average CZOI: 3.75 mm
[10]; 0.8 mg/mL
  Average CZOI: 2.75 mm
[10]; 1.0 mg/mL
  Average CZOI: 2 mm
[10]; 1.2 mg/mL
  Average CZOI: 4.75 mm
[10]; 1.4 mg/mL
  Average CZOI: 2.75 mm
[10]
  Lowest Concentration With Observed Inhibition: 0.6 mg/mL
  Most Effective Concentration Observed: 1.2 mg/mL
